Test results from patent US11000524B2, “Tyrosine kinase inhibition as a treatment for epilepsy” (Iowa State University Research Foundation, Inc., priority 2016, dated 2021).

Tests used:
[1] = system: hippocampal in vitro model; settings: Salter and Kalia, 2004, Sanna et al., 2000; cited from earlier work
[2] = system: kainate-induced SE in C57BL/6J mice; experiment: Saracatinib pretreatment 4 h before kainate-induced status epilepticus (behavioral seizure scoring, modified Racine scale); format: in vivo; settings: for mortality during SE / latency to the onset of first CS: saracatinib 25 mg/kg oral 4 h prior to SHD kainate 25 mg/kg i.p.; for mortality during SE: about 20% in vehicle group
Description: We tested Fyn knockout mice (fyn^−/−), bred on C57BL/6J hybrid background mouse (fyn^+/+), and in wildtype C57BL/6J mice treated with the fyn kinase inhibitor, Saracatinib ([…], 25 mg/kg, oral, single dose) 4 h prior to the induction of SE with KA (5 mg/kg, i.p. at 30 min intervals or as a single high dose of 25 mg/kg). Two hours after the established SE, the behavioral SE was terminated with diazepam (10 mg/kg, i.p.). The animals were euthanized with pentobarbitone (100 mg/kg, i.p.) at 4 h, 24 h and 7d (for IHC & WB) and 4 weeks (video-EEG group) post-SE. The brain, serum, and cerebrospinal fluid (CSF) were collected for various analyses. […] We examined the time-dependent activation of fyn in microglial cells and initiation of neuro-inflammatory and neurodegenerative mechanisms in the hippocampus at 4 h, 24 h and 7 day time points post-SE. We also performed electroencephalographic (EEG) analysis to determine the spike rate and SRS frequency.
Thirty C57BL/6J mice were used for the saracatinib experiment. In this experiment, 15 mice were treated with saracatinib (25 mg/kg, oral gavage as a single dose) at 4 h prior to a single high dose (SHD) of kainate (25 mg/kg, i. p), while the remaining 15 mice were given the vehicle [0.5% hydroxypropyl methylcellulose in 0.1% tween 80] 4 h prior to kainate.
All animals administered with kainate were subjected to video recording. The seizures were staged and the SE was scored by direct observation of animals during the 2 h SE and exact duration of each stage of seizure was calculated. The video recordings were used for secondary analysis and for independent verification of seizures by two different personnel who were not involved in direct scoring during the experiments. The personnel who did the behavioral analysis were blind to the experimental groups. The behavioral seizures were scored based on modified Racine scale from stage 1 to 5 as described previously (Beamer et al., 2012; Puttachary et al., 2015b; Racine, 1972; Tse et al., 2014). Briefly, the staging was as follows: stage 1, absence-like immobility; stage-2, hunching with facial or manual automatisms evident from brisk movement of vibrissae and repeated grooming of the face; stage 3, rearing with forelimb clonus and facial or manual automatisms; stage 4, repeated rearing with continuous forelimb clonus and falling; and stage-5, generalized tonic clonic convulsions with lateral recumbence or jumping and/or wild running followed by generalized convulsions. Stage 1 and stage 2 were categorized as non-convulsive seizures (NCS) and stage ≥3 as convulsive seizures (CS) (Beamer et al., 2012; Puttachary et al., 2015b; Tse et al., 2014). The latency to the onset of CS and the duration of seizures were analyzed for each animal within a group as described previously (Puttachary et al., 2015b; Tse et al., 2014). The duration of CS is the total time spent by an animal in stage ≥3 during the 2 h of established SE until the diazepam was administered. Since a very few animals reached stage 5 in the saracatinib pretreated group and in the fyn^−/− mice, we considered stage ≥3 as the starting point for 2 h established SE. The data were analyzed and the severity of seizures, duration of CS, latency to CS onset, and mortality rate were compared between the groups.
In all kainate-treated animals, the behavior seizures were terminated with diazepam (10 mg/kg, i.p.) at 2 h after the first onset of convulsive seizure. The 2 h duration between the onset of convulsive seizure and the diazepam treatment was considered as 2 h established SE. During this period, all wildtype control mice had continuous convulsive seizures for >30 min. All kainate-treated animals received 1 mL of Ringer's lactate solution (s.c.) twice a day for three days to enable them to recover from dehydration and the lost bodyweight due to SE.

[3] = system: rat kainate model of epilepsy; experiment: Saracatinib post-treatment in the rat kainate model of epilepsy, 4 months video-EEG study; format: in vivo, rats; settings: four months monitoring
Description: Fifteen rats (n=8 for control and 7 for SAR) were studied over the course of four months. Treatments and methods used in Example 12 were followed for this Example except for the extended time and the SAR/vehicle was administered 2 h after stopping the seizures (SE) with diazepam. The SAR was given at 25 mg/kg, oral twice daily for three days followed by daily for next four days. The drug was NOT administered after 7-day time point.

[4] = system: rat kainate model of TLE; experiment: Saracatinib post-treatment in the rat kainate model of TLE, 28 days continuous video-EEG; format: in vivo, Sprague Dawley rats; settings: for rats that did not develop epilepsy (of seven treated): 25 mg/kg oral from 2 h post-diazepam, twice daily 3 days then daily 4 days
Description: Rats were used in the following example. The rats were treated as per the materials and methods of Examples 2-10 except for the following. Fourteen rats were used and implanted with telemetry device 10 days prior to the induction of SE, with RLD of kainate, as described previously (Puttachary et al., 2016b). The telemetry device used was CTA-F40 PhysioTel™ telemetry device (Data Science International, Minneapolis, USA) for video-EEG recording.
Disabling the Fyn kinase function, either by pretreatment with saracatinib or fyn KO, prior to SE induction impacts the initial severity of SE and thus compromises the epileptogenic events. Therefore, we tested the effect of Fyn kinase inhibition with the saracatinib on epileptogenesis after the induction of SE in the rat kainate model of TLE. To mimic human TLE from translational view point, the rat kainate model is more suitable in terms of progressive nature of the disease since the frequency of spontaneous CS consistently increases over time in rats in contrast to the mouse kainate model (Puttachary et al., 2015b and 2016b). Therefore, we tested the saracatinib in the rat kainate model after terminating the behavioral SE with diazepam. The saracatinib (25 mg/kg, oral) was administered at 2 h post-diazepam and repeated twice daily for first three days followed by a single dose daily for the next four days during the first week of post-SE period. The treatment regimen was chosen based on increase in Fyn and PKCδ levels during the first week of post-SE in the mouse model.

[5] = LC-MS of saracatinib in hippocampal tissue (blood brain barrier crossing); format: in vivo, C57BL/6J mice
Description: For the LC-MS the optimum dose of saracatinib for our experiment was based on the published literature (Green et al., 2009; Hannon et al., 2010; Liu et al., 2012; Yang et al., 2010). […] The mice hippocampal tissues were homogenized in ˜0.2 mL 1:1 methanol:water using bullet blender. An additional 125 μL HPLC grade water was added to the homogenized samples. This was followed by three similar successive extractions with 375 μL 3:1 acetonitrile:water. The homogenate was sonicated for 10 min in a sonication water bath. The sample was pelleted by centrifugation at 13,000 g for 7 min and the supernatant was collected after each extraction and the samples were pooled. […]
The LC-MS analysis for saracatinib was conducted using an Agilent Technologies 1290 Infinity Binary Pump UHPLC system coupled to an Agilent Technologies 6540 UHD Accurate-Mass Q-TOF mass spectrometer in high resolution mode ([…]) and scanning m/z 100-1700. […] Saracatinib detection is represented by extracted ion chromatogram (EIC) using a 10 ppm extraction window and was analyzed (FIG. 1E) using Agilent Mass Hunter Qualitative Analysis B.07.00 software. The X-axis on the EIC represents retention time and the Y-axis represents the abundance of ions detected. Saracatinib concentrations were observed as the area of the EIC peaks and was calculated based on the linear curve of the observed peak areas of standards. […]

[6] = saracatinib 25 mg/kg oral single dose 4 h prior to kainate, vs vehicle, 2 h established SE

In the case of CC(C)(C)n1nc(-c2ccc(Cl)cc2)c2c(N)ncnc21 [PP2], the “frequency of epileptiform discharges” value [1] is given as “reduces frequency of epileptiform discharges”.

With CN1CCN(CCOc2cc(OC3CCOCC3)c3c(Nc4c(Cl)ccc5c4OCO5)ncnc3c2)CC1 [saracatinib, N-(5-chloro-1,3-benzodioxol-4-yl)-7-[2-(4-methylpiperazin-1-yl)ethoxy]-5-(oxan-4-yloxy)quinazolin-4-amine] the “mice that reached stage 5 seizure” value ([2]; SHD kainate 25 mg/kg, 67% in vehicle group) was 7%, the “mortality during SE” value [2] was “no mortality” and the “mortality during SE” value ([2]; listed as SAR) was “reducing seizure severity and morality rate”. For the same compound, the “latency to the onset of first CS” value ([2]; vs vehicle) was “increased latency”, the “latency to the onset of first CS” value ([2]; vs vehicle, listed as SAR) was “increasing the latency of seizure onset” and the “duration of convulsive seizures (CS)” value [2, 6] was “significant reduction”. For the same compound, the seizure severity [2, 6] was “significant reduction”, the seizure severity ([2]; saracatinib 25 mg/kg oral single dose 4 h prior to kainate, vs vehicle, 2 h established SE, listed as SAR) was “reducing seizure severity” and the “rats in which development of epilepsy was completely prevented (of seven)” value ([3]; 25 mg/kg oral twice daily 3 days then daily 4 days) was “four out of seven”. For the same compound, the animals not responding [3] was “one animal did not respond”, the “seizures in the other animals” value [3] was “significantly reduced seizures” and the “rats that did not develop epilepsy (of seven treated)” value ([4]; 28 d post-SE) was “four out of seven”. For the same compound, the “rats that did not develop epilepsy (of seven treated)” value ([4]; 28 d post-SE, listed as SAR) was “four”, the “epileptiform spike counts / spiking frequency vs vehicle” value ([4]; 28 d post-SE, video-EEG) was “significantly reduced” and the “number of spontaneous CS vs vehicle” value ([4]; 28 d post-SE, video-EEG) was “significantly reduced”. For the same compound, the “number of spontaneous CS vs vehicle” value ([4]; 28 d post-SE, video-EEG, listed as SAR) was “significant reduction”, the “initial SE severity vs vehicle group” value ([4]; before treatment (post-SE dosing)) was “no significant difference” and the “rats not responding to treatment” value ([4]; of seven treated rats) was “one rat did not respond”. For the same compound, the “number of spontaneous CS in a month (two rats)” value ([4]; two of seven treated rats, >24 episodes in vehicle group) was under 10, the “crossing of the blood brain barrier (BBB)” value ([5]; LC-MS of hippocampus after 25 mg/kg oral) was “crossed the BBB” and the “persistence in hippocampus, 8 h compared to 28 h” value ([5]; LC-MS, FIG. 1F) was “persisted in the hippocampus at higher levels at 8 h post-SE when compared to 28 h post-administration”.
